We go through one substance from paper PMC3771522 (Analytical chemistry, 2013).

Assay [1] addresses proliferating cell nuclear antigen (PCNA) (Homo sapiens, UniProt P12004). Description: fluorescence titration, hyperbolic single-site fit. The class given is binding. Particulars: constant PCNA, increasing TNP-ATP.
The target in a further assay is creatine phosphokinase. Nature of the assay: fluorescence titration, hyperbolic single-site fit. As to conditions: known ATP-binding protein for comparison.

Sequence of proliferating cell nuclear antigen (PCNA) (P12004 whole entry): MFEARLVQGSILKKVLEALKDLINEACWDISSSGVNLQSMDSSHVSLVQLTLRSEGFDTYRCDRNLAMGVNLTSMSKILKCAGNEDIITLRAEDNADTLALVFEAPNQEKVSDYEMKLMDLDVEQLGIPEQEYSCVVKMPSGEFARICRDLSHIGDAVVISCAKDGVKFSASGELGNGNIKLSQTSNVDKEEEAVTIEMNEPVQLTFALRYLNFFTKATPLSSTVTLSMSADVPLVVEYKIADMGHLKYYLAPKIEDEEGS

Broadly, the Kd is the concentration at which binding is half-saturated. Higher therefore signals lower affinity. For the substance TNP-ATP, the figures for the Kd (in assay [1]; on creatine phosphokinase) were 13 µM and 27 µM, respectively.
